According to the Kinase Knowledgebase extract (Sharma et al. 2016):

These molecules were tested against PIK3CD (Human) (UniProt O00329) (assay: Cell-Based Assay). Conditions: u937.
Sequence of PIK3CD (Human) (O00329 whole entry, looked up): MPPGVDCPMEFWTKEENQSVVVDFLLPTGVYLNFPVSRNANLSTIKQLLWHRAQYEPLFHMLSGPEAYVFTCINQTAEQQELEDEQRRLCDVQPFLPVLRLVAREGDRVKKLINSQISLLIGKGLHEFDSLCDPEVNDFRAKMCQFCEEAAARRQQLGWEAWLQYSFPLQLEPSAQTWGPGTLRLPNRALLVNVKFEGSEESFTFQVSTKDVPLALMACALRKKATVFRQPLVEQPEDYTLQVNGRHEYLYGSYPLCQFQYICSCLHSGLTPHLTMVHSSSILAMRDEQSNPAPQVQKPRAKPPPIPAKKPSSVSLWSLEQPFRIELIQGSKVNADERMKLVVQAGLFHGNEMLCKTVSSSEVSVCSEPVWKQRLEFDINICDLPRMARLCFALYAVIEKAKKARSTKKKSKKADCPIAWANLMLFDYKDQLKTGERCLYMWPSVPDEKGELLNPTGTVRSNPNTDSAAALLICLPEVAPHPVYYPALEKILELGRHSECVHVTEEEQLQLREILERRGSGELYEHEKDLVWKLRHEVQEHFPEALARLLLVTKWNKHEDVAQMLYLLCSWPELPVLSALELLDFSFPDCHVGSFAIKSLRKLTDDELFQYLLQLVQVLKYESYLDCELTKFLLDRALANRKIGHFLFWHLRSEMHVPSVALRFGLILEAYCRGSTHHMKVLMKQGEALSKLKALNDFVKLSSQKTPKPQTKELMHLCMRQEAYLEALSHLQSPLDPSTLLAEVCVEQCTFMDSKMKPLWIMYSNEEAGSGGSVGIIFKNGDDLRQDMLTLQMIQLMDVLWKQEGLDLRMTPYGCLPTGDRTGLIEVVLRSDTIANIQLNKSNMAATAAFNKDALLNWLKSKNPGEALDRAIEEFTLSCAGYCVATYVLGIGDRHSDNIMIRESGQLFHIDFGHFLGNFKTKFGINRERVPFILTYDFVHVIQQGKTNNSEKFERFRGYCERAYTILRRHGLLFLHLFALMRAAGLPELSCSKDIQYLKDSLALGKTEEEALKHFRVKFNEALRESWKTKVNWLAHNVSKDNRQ

Row | IC50 [µM] | Compound
1 | < 0.01 | Nc1ncnc2c1c(-c1cccc(O)c1)nn2Cc1nc2cccc(C#CCCNC(=O)N3CCOCC3)c2c(=O)n1Cc1ccccc1Cl
2 | < 0.01 | C#Cc1cccc2nc(Cn3nc(-c4cccc(O)c4)c4c(N)ncnc43)n(Cc3ccc(C(F)(F)F)cc3)c(=O)c12
3 | < 0.01 | Nc1ncnc2c1c(-c1ccc(O)cc1)nn2Cc1nc2cccc(C#CCCCO)c2c(=O)n1Cc1ccccc1Cl
4 | < 0.01 | CN1CCCN(C(=O)CCCC#Cc2cccc3nc(Cn4nc(-c5ccc(O)cc5)c5c(N)ncnc54)n(Cc4ccccc4Cl)c(=O)c23)CC1
5 | < 0.01 | C#Cc1cccc2nc(Cn3nc(-c4cccc(O)c4)c4c(N)ncnc43)n(Cc3ccc(Cl)cc3)c(=O)c12
6 | < 0.01 | Nc1ncnc2c1c(-c1cccc(O)c1)nn2Cc1nc2cccc(C#CCCCC(=O)N3CCC(N4CCOCC4)CC3)c2c(=O)n1Cc1ccccc1Cl
7 | < 0.01 | Cn1cc(Cn2c(Cn3nc(-c4cccc(O)c4)c4c(N)ncnc43)nc3cccc(C#CCCCC(=O)N4CCOCC4)c3c2=O)cn1
8 | < 0.01 | Nc1ncnc2c1c(-c1ccc(O)cc1)nn2Cc1nc2cccc(C#CCCCC(=O)N3CCOCC3)c2c(=O)n1Cc1ccccc1F
9 | < 0.01 | Nc1ncnc2c1c(-c1cccc(O)c1)nn2Cc1nc2cccc(C#CCCC(=O)N3CCOCC3)c2c(=O)n1Cc1ccccc1Cl
10 | < 0.01 | C#Cc1cccc2nc(Cn3nc(-c4ccc(O)cc4)c4c(N)ncnc43)n(Cc3ccc(Cl)cc3F)c(=O)c12
11 | < 0.01 | CN(C)CCNC(=O)CCCC#Cc1cccc2nc(Cn3nc(-c4ccc(O)cc4)c4c(N)ncnc43)n(Cc3ccccc3Cl)c(=O)c12
12 | < 0.01 | COCCN1CCN(C(=O)CCCC#Cc2cccc3nc(Cn4nc(-c5ccc(O)cc5)c5c(N)ncnc54)n(Cc4ccccc4Cl)c(=O)c23)CC1
13 | < 0.01 | C#Cc1cccc2nc(Cn3nc(-c4ccc(O)cc4)c4c(N)ncnc43)n(Cc3ccc(C#N)cc3)c(=O)c12
14 | < 0.01 | C#Cc1cccc2nc(Cn3nc(-c4ccc(O)cc4)c4c(N)ncnc43)n(Cc3ccc(S(C)(=O)=O)cc3)c(=O)c12
15 | < 0.01 | C#Cc1cccc2nc(Cn3nc(-c4ccc(O)cc4)c4c(N)ncnc43)n(Cc3cccc(Cl)c3F)c(=O)c12
16 | < 0.01 | Nc1ncnc2c1c(-c1ccc(O)cc1)nn2Cc1nc2cccc(C#CCCCC(=O)N3CCCCC3)c2c(=O)n1Cc1ccccc1Cl

Row | IC50 [µM] | Compound
17 | < 0.01 | Nc1ncnc2c1c(-c1cccc(O)c1)nn2Cc1nc2cccc(C#CCCCCC(=O)N3CCOCC3)c2c(=O)n1Cc1ccccc1Cl
18 | < 0.01 | CN1CCN(CCN(C)C(=O)CCCC#Cc2cccc3nc(Cn4nc(-c5ccc(O)cc5)c5c(N)ncnc54)n(Cc4ccccc4Cl)c(=O)c23)CC1
19 | < 0.01 | Nc1ncnc2c1c(-c1cccc(O)c1)nn2Cc1nc2cccc(C#CCCCC(=O)N3CCOCC3)c2c(=O)n1Cc1ccccc1Cl
20 | < 0.01 | COc1cccc(Cn2c(Cn3nc(-c4ccc(O)cc4)c4c(N)ncnc43)nc3cccc(C#CCCCC(=O)N4CCOCC4)c3c2=O)c1F
21 | < 0.01 | C#Cc1cccc2nc(Cn3nc(-c4ccc(O)cc4)c4c(N)ncnc43)n(Cc3cccc(C(F)(F)F)c3)c(=O)c12
22 | < 0.01 | N#Cc1cccc(Cn2c(Cn3nc(-c4cccc(O)c4)c4c(N)ncnc43)nc3cccc(C#CCOCCOCCO)c3c2=O)c1
23 | 0.01 to 1 | CN(C)C1CCN(C(=O)CCCC#Cc2cccc3nc(Cn4nc(-c5cccc(O)c5)c5c(N)ncnc54)n(Cc4ccccc4Cl)c(=O)c23)C1 (configuration not stated)
24 | < 0.01 | C#Cc1cccc2nc(Cn3nc(-c4ccc(O)cc4)c4c(N)ncnc43)n(Cc3ccc(Cl)cc3)c(=O)c12
25 | < 0.01 | COCC#Cc1cccc2nc(Cn3nc(-c4ccc(O)cc4)c4c(N)ncnc43)n(Cc3cccc(OC)c3)c(=O)c12
26 | 0.01 to 1 | CN1CCCN(C(=O)CCCC#Cc2cccc3nc(Cn4nc(-c5cccc(O)c5)c5c(N)ncnc54)n(Cc4ccccc4Cl)c(=O)c23)CC1
27 | < 0.01 | C#Cc1cccc2nc(Cn3nc(-c4ccc(O)cc4)c4c(N)ncnc43)n(Cc3ccccc3C(F)(F)F)c(=O)c12
28 | < 0.01 | COCCN(CCCC#Cc1cccc2nc(Cn3nc(-c4ccc(O)cc4)c4c(N)ncnc43)n(Cc3ccccc3Cl)c(=O)c12)CCOC
29 | < 0.01 | C#Cc1cccc2nc(Cn3nc(-c4cccc(O)c4)c4c(N)ncnc43)n(Cc3ccc(S(C)(=O)=O)cc3)c(=O)c12
30 | < 0.01 | NC(=O)NCC#Cc1cccc2nc(Cn3nc(-c4ccc(O)cc4)c4c(N)ncnc43)n(Cc3ccccc3Cl)c(=O)c12
31 | < 0.01 | COCCN(CCOC)C(=O)CCCC#Cc1cccc2nc(Cn3nc(-c4ccc(O)cc4)c4c(N)ncnc43)n(Cc3ccccc3Cl)c(=O)c12

The remaining lines, values behind:

Row | Compound | IC50 [µM]
32 | Nc1ncnc2c1c(-c1ccc(O)cc1)nn2Cc1nc2cccc(C#CCOCc3ccccc3)c2c(=O)n1Cc1ccccc1Cl | < 0.01
33 | C#Cc1cccc2nc(Cn3nc(-c4ccc(O)cc4)c4c(N)ncnc43)n(Cc3cccc(OC)c3)c(=O)c12 | < 0.01
34 | C#Cc1cccc2nc(Cn3nc(-c4cccc(O)c4)c4c(N)ncnc43)n(Cc3cc(C)on3)c(=O)c12 | < 0.01
35 | CN1CCN(CCNC(=O)CCCC#Cc2cccc3nc(Cn4nc(-c5ccc(O)cc5)c5c(N)ncnc54)n(Cc4ccccc4Cl)c(=O)c23)CC1 | < 0.01
36 | Nc1ncnc2c1c(-c1cccc(O)c1)nn2Cc1nc2cccc(C#CCOCCN3CCOCC3)c2c(=O)n1Cc1ccccc1Cl | < 0.01
37 | COC(=O)c1cccc(Cn2c(Cn3nc(-c4cccc(O)c4)c4c(N)ncnc43)nc3cccc(C#CCCCC(=O)N4CCOCC4)c3c2=O)c1 | < 0.01
38 | C#Cc1cccc2nc(Cn3nc(-c4ccc(O)cc4)c4c(N)ncnc43)n(Cc3ccccc3)c(=O)c12 | < 0.01
39 | C#Cc1cccc2nc(Cn3nc(-c4ccc(O)cc4)c4c(N)ncnc43)n(Cc3cc(C)on3)c(=O)c12 | < 0.01
40 | C#Cc1cccc2nc(Cn3nc(-c4ccc(O)cc4)c4c(N)ncnc43)n(Cc3cccc(Cl)c3)c(=O)c12 | < 0.01
41 | C#Cc1cccc2nc(Cn3nc(-c4ccc(O)cc4)c4c(N)ncnc43)n(Cc3ccc(OC)cc3)c(=O)c12 | < 0.01
42 | CN(C)C1CCN(C(=O)CCCC#Cc2cccc3nc(Cn4nc(-c5ccc(O)cc5)c5c(N)ncnc54)n(Cc4ccccc4Cl)c(=O)c23)C1 (configuration not stated) | < 0.01
43 | C#Cc1cccc2nc(Cn3nc(-c4cccc(O)c4)c4c(N)ncnc43)n(Cc3cccc(Cl)c3)c(=O)c12 | < 0.01
44 | COCC#Cc1cccc2nc(Cn3nc(-c4cccc(O)c4)c4c(N)ncnc43)n(Cc3ccc(Cl)cc3)c(=O)c12 | < 0.01
45 | COc1cc(-c2nn(Cc3nc4cccc(C#CCCCC(=O)N5CCOCC5)c4c(=O)n3Cc3ccccc3Cl)c3ncnc(N)c23)ccc1O | < 0.01
46 | CN1CCN(C(=O)CCCC#Cc2cccc3nc(Cn4nc(-c5cccc(O)c5)c5c(N)ncnc54)n(Cc4ccccc4Cl)c(=O)c23)CC1 | < 0.01
47 | C#Cc1cccc2nc(Cn3nc(-c4ccc(O)cc4)c4c(N)ncnc43)n(Cc3ccccc3Cl)c(=O)c12 | < 0.01
48 | CC(=O)N1CCN(C(=O)CCCC#Cc2cccc3nc(Cn4nc(-c5ccc(O)cc5)c5c(N)ncnc54)n(Cc4ccccc4Cl)c(=O)c23)CC1 | < 0.01
49 | CN(C)C1CCN(C(=O)CCCC#Cc2cccc3nc(Cn4nc(-c5ccc(O)cc5)c5c(N)ncnc54)n(Cc4ccccc4Cl)c(=O)c23)CC1 | < 0.01
50 | C#Cc1cccc2nc(Cn3nc(-c4cccc(O)c4)c4c(N)ncnc43)n(Cc3ccccc3F)c(=O)c12 | < 0.01
51 | C#Cc1cccc2nc(Cn3nc(-c4ccc(O)cc4)c4c(N)ncnc43)n(Cc3ccccc3F)c(=O)c12 | < 0.01
52 | C#Cc1cccc2nc(Cn3nc(-c4ccc(O)c(F)c4)c4c(N)ncnc43)n(Cc3ccccc3Cl)c(=O)c12 | < 0.01
